Reference: PMC6376162, “HEXIM1 Peptide Exhibits Antimicrobial Activity Against Antibiotic Resistant Bacteria Through Guidance of Cell Penetrating Peptide” (Frontiers in Microbiology, 2019)

System: bacterial translation (E. coli lysate)
Experiment: In vitro protein synthesis assay (RTS 100 E. coli HY Kit, GFP, Western blot)
Type: biochemical, Escherichia coli
Details: 10 μM streptomycin, RTS with 5 μg GFP mRNA, 30°C, 6 h; positive control
Description: The method to study the effect of peptide treatment on in vitro expression of protein was adapted from previous study ([Taniguchi et al., 2016]). RTS^TM 100 E. coli HY Kit (biotechrabbit) was used as a cell-free rapid translation system (RTS) to express green fluorescent protein (GFP) with or without peptide treatment. Streptomycin (Sigma-Aldrich), an antibiotic functioning as an inhibitor of bacterial translation, was used as a positive control. Reaction mixture was prepared as described in the product manual. For the negative control, the remaining 10 μl was topped up with nuclease-free water while for the other reactions, the 10 μl consists of 5 μg GFP mRNA and either nuclease-free water or the indicated treatment (100 μM Pen, Pen-BR, Pen-RRR, CapM2 or 10 μM Streptomycin). Reaction was incubated at 30°C for 6 h before being analyzed with Western blot for the protein level of GFP. To obtain GFP mRNA, control GFP expression vector was first linearized using ApaLI restriction enzyme (New England Biolabs) and then separated via agarose gel electrophoresis. Fragment containing the linearized GFP expression vector was retrieved using FavorPrep GEL Purification Kit (FAVORGEN Biotech Corp.) and subsequently used as the template for MEGAscript^TM T7 Transcription Kit (Thermo Fisher Scientific) to generate GFP mRNA. […]

SMILES: [H]/N=C(/N)N[C@H]1[C@H](O)[C@@H](O)[C@H](O[C@@H]2O[C@@H](C)[C@](O)(C=O)[C@H]2O[C@@H]2O[C@@H](CO)[C@H](O)[C@@H](O)[C@@H]2NC)[C@@H](N/C(N)=N\[H])[C@@H]1O [streptomycin, Streptomycin]
- synthesis of GFP protein (Western blot): significant inhibition
